Experimental findings from patent US9353090B2, “Heterocyclic carboxylic acids as activators of soluble guanylate cyclase” (Boehringer Ingelheim International GmbH, priority 2014, dated 2016) are described below.

Usually EC50 stands for the concentration needed to bring the measured effect to its halfway point. High values mean a less potent agent, low ones a more potent agent. The solubility is how much of the substance goes into solution per volume. Low values mean little dissolved substance, high ones much dissolved substance.

Structures are written as SMILES. Values after ≈ are worked out from the molar mass of the structure shown.

Data set [1] in a line: Human liver microsome (HLM) metabolic stability assay. The class given is in vitro ADME. Particulars: human liver microsomes. The gist of the method: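 Compound at 1 uM incubated with human liver microsomes at 37° C. for 60 min after NADPH addition. Aliquots quenched in cold acetonitrile at 0, 5, 15, 30 and 60 min and analysed by LC/MS/MS. t1/2 from ln(% remaining) vs time slope; CLint, CLh and % Qh derived from it (n=1).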
On the technique in general: Liver microsomes are vesicles of endoplasmic reticulum, rich in cytochrome P450 enzymes.

Data set [2] concerns the target human soluble guanylate cyclase alpha 1 and beta 1 subunits (sGC) (Homo sapiens (Human), UniProt Q02108+Q02153). The data set is described as follows: sGC cellular activator assay (cGMP, HTRF), in the presence and absence of 50% human serum. Format: cell-based. Particulars: CHO cells stably expressing human sGC alpha 1/beta 1, preincubated with 40 microM ODQ; cGMP by HTRF; Table 2 does not state whether with or without 50% human serum. The gist of the method:
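Heme-oxidized conditions: ODQ (40 microM, 1 h) pretreatment of CHO cells stably expressing human α1/β1 sGC, in buffer containing 0.1% BSA and IBMX.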
(In general: Time-resolved FRET reads energy transfer from a long-lived donor to a nearby acceptor.)

The next data set is described as follows: physchem. Particulars: kinetic from dmso stock.
Setting [3] is: pH 2.2, aqueous buffer, Solubility (pH 2.2).
Where [4] appears, read: pH 4.5, aqueous buffer, Solubility (pH 4.5).
[5] abbreviates: pH 6.8, aqueous buffer, Solubility (pH 6.8).

human soluble guanylate cyclase alpha 1 and beta 1 subunits (sGC), sequence (Q02108 whole entry partner): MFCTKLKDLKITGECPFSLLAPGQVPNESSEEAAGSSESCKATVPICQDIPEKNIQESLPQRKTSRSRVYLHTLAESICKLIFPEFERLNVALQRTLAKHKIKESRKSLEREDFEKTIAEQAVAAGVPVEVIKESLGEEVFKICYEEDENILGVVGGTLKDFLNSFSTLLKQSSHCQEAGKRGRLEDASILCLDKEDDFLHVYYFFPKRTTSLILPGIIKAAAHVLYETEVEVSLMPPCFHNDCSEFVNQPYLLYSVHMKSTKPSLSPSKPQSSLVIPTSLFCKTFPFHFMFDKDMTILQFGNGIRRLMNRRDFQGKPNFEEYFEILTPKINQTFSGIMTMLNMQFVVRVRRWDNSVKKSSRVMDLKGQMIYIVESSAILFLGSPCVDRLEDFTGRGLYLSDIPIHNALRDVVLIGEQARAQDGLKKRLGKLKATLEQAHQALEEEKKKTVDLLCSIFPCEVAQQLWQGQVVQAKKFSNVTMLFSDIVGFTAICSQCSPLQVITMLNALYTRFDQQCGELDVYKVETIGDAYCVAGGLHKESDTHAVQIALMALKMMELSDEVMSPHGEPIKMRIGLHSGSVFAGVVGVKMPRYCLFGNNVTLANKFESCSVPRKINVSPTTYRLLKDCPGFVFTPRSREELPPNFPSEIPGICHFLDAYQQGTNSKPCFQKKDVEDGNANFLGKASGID
human soluble guanylate cyclase alpha 1 and beta 1 subunits (sGC), sequence (Q02153 whole entry): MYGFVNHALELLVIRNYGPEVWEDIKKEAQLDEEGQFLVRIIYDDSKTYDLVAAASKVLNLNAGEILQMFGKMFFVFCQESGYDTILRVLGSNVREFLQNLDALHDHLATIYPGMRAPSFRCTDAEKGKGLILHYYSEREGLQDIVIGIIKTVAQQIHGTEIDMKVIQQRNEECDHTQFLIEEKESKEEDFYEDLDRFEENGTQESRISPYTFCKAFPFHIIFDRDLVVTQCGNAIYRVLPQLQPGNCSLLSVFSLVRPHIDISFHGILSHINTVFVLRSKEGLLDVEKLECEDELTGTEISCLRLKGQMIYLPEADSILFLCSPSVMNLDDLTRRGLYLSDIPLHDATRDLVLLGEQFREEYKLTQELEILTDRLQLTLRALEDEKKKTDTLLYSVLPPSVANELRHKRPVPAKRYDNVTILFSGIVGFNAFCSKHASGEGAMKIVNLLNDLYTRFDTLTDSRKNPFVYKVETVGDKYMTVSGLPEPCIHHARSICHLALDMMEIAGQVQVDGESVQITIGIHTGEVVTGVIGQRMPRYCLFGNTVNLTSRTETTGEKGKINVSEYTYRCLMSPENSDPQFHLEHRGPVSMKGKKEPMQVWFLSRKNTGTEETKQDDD

Take `CO[C@H]1CN(c2cccc(-c3cc(C)ccc3OCc3ccc4c(c3C)CCN(C3CCOCC3)C4)n2)CC[C@H]1C(=O)O` [Compound 71]: the “Metabolic stability (Qh %), % hepatic blood flow” value (“Metabolic stability (Qh %)” below) in data set [1] is recorded as under 24%. This molecule registered an EC50 in data set [2] of 110 nM. Moreover, the solubility at 24 h in the data set “physchem” (setting [3]) is 130 µg/mL (≈ 222 µM); in the data set “physchem” (setting [4]), 110 µg/mL (≈ 188 µM); in “physchem” (setting [5]), 81 µg/mL (≈ 138 µM).
Turning to `Cc1c(COc2ccccc2-c2cccc(N3CC[C@@]4(C(=O)O)C[C@H]4C3)n2)ccc2c1CCN([C@@H]1CCOC1)C2` [Compound 8], the “Metabolic stability (Qh %)” value in data set [1] was found to be 49%. The molecule further showed an EC50 in data set [2] of 12 nM. Further, the figures for the solubility at 24 h in “physchem” (setting [3]), in “physchem” (setting [4]) and in the data set “physchem” (setting [5]) were 150 µg/mL (≈ 278 µM), 110 µg/mL (≈ 204 µM) and 44 µg/mL (≈ 81.5 µM), respectively.
For `COc1cc(COc2c(C)cccc2-c2cccc(N3CC[C@H](C(=O)O)[C@H](OC)C3)n2)cc2c1CN(C1CCOCC1)CC2` [Compound 249], in data set [1], the “Metabolic stability (Qh %)” value is on record as under 24%. In data set [2], the midpoint of the response, the EC50, lay at 13 nM. Besides, the solubility at 24 h in the data set “physchem” (setting [3]) came to 129 µg/mL (≈ 214 µM); in “physchem” (setting [4]) it was 127 µg/mL (≈ 211 µM); in “physchem” (setting [5]), 120 µg/mL (≈ 199 µM).
On the same counts, the results for `Cc1ccc(OCc2ccc3c(c2C)CCN(C2CCOCC2)C3)c(-c2csc(N3C[C@@H]4C[C@]4(C(=O)O)[C@H]3C)n2)c1` [Compound 154] are under 24%, 4 nM, 110 µg/mL (≈ 192 µM), 65 µg/mL (≈ 113 µM) and 25 µg/mL (≈ 43.6 µM).
On the same counts, the results for `Cc1ccc(OCc2ccc3c(c2C)CCN(CC2COCCO2)CC3)c(-c2csc(N3CC[C@@]4(C(=O)O)C[C@H]4C3)n2)c1` (stereo partly shown) [Compound 132] are 46%, 22 nM, 110 µg/mL (≈ 182 µM), 23 µg/mL (≈ 38.1 µM) and 3.1 µg/mL (≈ 5.13 µM).
As to `COc1ccc(OCc2ccc3c(c2C)CCN(C2COC2)C3)c(-c2csc(N3CC[C@@]4(C(=O)O)C[C@H]4C3)n2)c1` [Compound 201], the “Metabolic stability (Qh %)” value in data set [1] is given as under 24%. In data set [2], the EC50 was found to be 40 nM. Further, the solubility at 24 h in “physchem” (setting [3]) turned out to be 132 µg/mL (≈ 235 µM); in the data set “physchem” (setting [4]) it was 10.1 µg/mL (≈ 18 µM); in the data set “physchem” (setting [5]), 19.5 µg/mL (≈ 34.7 µM).
On the same counts, the results for `Cc1c(COc2ccccc2-c2cccc(N3CC[C@@]4(C(=O)O)C[C@H]4C3)n2)ccc2c1CCN(C[C@@H]1COCCO1)C2` [Compound 10] are 32%, 9 nM, 130 µg/mL (≈ 228 µM), 110 µg/mL (≈ 193 µM) and 55 µg/mL (≈ 96.5 µM).
The matching figures for `COC[C@H]1N(c2cccc(-c3cccc(C)c3OCc3cc(C)c4c(c3F)CCN(C3CCOCC3)C4)n2)C[C@@H]2C[C@@]21C(=O)O` [Compound 59]: under 24%, 8 nM, 120 µg/mL (≈ 195 µM), 99 µg/mL (≈ 161 µM) and 74 µg/mL (≈ 120 µM).
The matching figures for `Cc1cc(COc2c(C)cccc2-c2cccc(N3C[C@@H]4C[C@]4(C(=O)O)C3)n2)cc2c1CN(C1COC1)CC2` [Compound 23]: under 24%, 6 nM, 100 µg/mL (≈ 190 µM), 88 µg/mL (≈ 167 µM) and 69 µg/mL (≈ 131 µM).
With `COC[C@H]1N(c2nc(-c3cccc(C)c3OCc3cc(C)c4c(c3)CCN(C3CCOCC3)C4)cs2)C[C@@H]2C[C@@]21C(=O)O` [Compound 162], in data set [1], the “Metabolic stability (Qh %)” value stood at 39%. The molecule also registered an EC50 in data set [2] of 4 nM. Also, the solubility at 24 h in “physchem” (setting [3]) is 120 µg/mL (≈ 199 µM); in “physchem” (setting [4]) it was 82 µg/mL (≈ 136 µM); in “physchem” (setting [5]), 75 µg/mL (≈ 124 µM).
On the same counts, the results for `COCc1cc(COc2c(C)cccc2-c2cccc(N3C[C@@H]4C[C@]4(C(=O)O)[C@H]3COC)n2)cc2c1CN(C1CCOC1)CC2` (stereo partly shown) [Compound 280] are 30%, 140 nM, 120 µg/mL (≈ 196 µM), 91 µg/mL (≈ 148 µM) and 79.3 µg/mL (≈ 129 µM).
As for `Cc1ccc(OCc2ccc3c(c2)CCN(C2CCOCC2)C3)c(-c2csc(N3C[C@@H]4C[C@]4(C(=O)O)[C@H]3C)n2)c1` [Compound 153], the “Metabolic stability (Qh %)” value in data set [1] was under 24%. This molecule came in with an EC50 in data set [2] of 14 nM. Further, the solubility at 24 h in the data set “physchem” (setting [3]) was 120 µg/mL (≈ 214 µM); in “physchem” (setting [4]), 72 µg/mL (≈ 129 µM); in the data set “physchem” (setting [5]) it was 47 µg/mL (≈ 84 µM).
On the same counts, the results for `Cc1cc(COc2c(C)cccc2-c2csc(N3CC[C@@]4(C(=O)O)C[C@H]4C3)n2)c(C)c2c1CN(CC1COCCO1)CC2` (stereo partly shown) [Compound 98] are 48%, 1 nM, 120 µg/mL (≈ 199 µM), 75 µg/mL (≈ 124 µM) and 31 µg/mL (≈ 51.3 µM).
The matching figures for `CCO[C@H]1CN(c2cccc(-c3cccc(Cl)c3OCc3cc4c(c(OC)c3)CN(C3CCOCC3)CC4)n2)CC[C@H]1C(=O)O` [Compound 257]: 85%, 3 nM, 164 µg/mL (≈ 258 µM), 88.2 µg/mL (≈ 139 µM) and 59 µg/mL (≈ 92.7 µM).
The matching figures for `Cc1ccc(OCc2ccc3c(c2)CCCN(C2CCOCC2)C3)c(-c2csc(N3CC[C@@]4(C(=O)O)C[C@H]4C3)n2)c1` [Compound 199]: 46%, 145 nM, 134 µg/mL (≈ 234 µM), 51.6 µg/mL (≈ 89.9 µM) and 23.8 µg/mL (≈ 41.5 µM).
Consider `Cc1ccc(OCc2ccc3c(c2)CCN(CC2COCCO2)C3)c(-c2csc(N3CC[C@@]4(C(=O)O)C[C@H]4C3)n2)c1` (stereo partly shown) [Compound 112], for which the “Metabolic stability (Qh %)” value in data set [1] is reported as under 24%. The same molecule registered an EC50 in data set [2] of 2 nM. The solubility at 24 h in “physchem” (setting [3]) stood at 120 µg/mL (≈ 208 µM); in the data set “physchem” (setting [4]), 55 µg/mL (≈ 95.5 µM); in the data set “physchem” (setting [5]), 8.1 µg/mL (≈ 14.1 µM).
Consider `Cc1cc(COc2c(C)cccc2-c2csc(N3CC[C@@]4(C(=O)O)C[C@H]4C3)n2)cc2c1CN(CC1COCCO1)CC2` (stereo partly shown) [Compound 91], for which the “Metabolic stability (Qh %)” value in data set [1] is under 24%. In data set [2], a half-maximal effect (EC50) was put at 3 nM. Moreover, the solubility at 24 h in “physchem” (setting [3]) worked out at 120 µg/mL (≈ 203 µM); in the data set “physchem” (setting [4]) it was 68 µg/mL (≈ 115 µM); in “physchem” (setting [5]), 41 µg/mL (≈ 69.5 µM).
Turning to `COc1cc(COc2ccc(C)cc2-c2csc(N3CC[C@@H](C(=O)O)[C@@H](OC)C3)n2)cc2c1CN(C1CCOCC1)CC2` [Compound 254], in data set [1], the “Metabolic stability (Qh %)” value is 26%. In data set [2], this molecule had an EC50 of 14 nM. Further, the solubility at 24 h in “physchem” (setting [3]) stood at 118 µg/mL (≈ 194 µM); in “physchem” (setting [4]) it was 67.5 µg/mL (≈ 111 µM); in “physchem” (setting [5]) it was 2.9 µg/mL (≈ 4.77 µM).
Regarding `CCO[C@@H]1CN(c2cccc(-c3cccc(Cl)c3OCc3cc(C)c4c(c3)CCN(C3CCOCC3)C4)n2)CC[C@@H]1C(=O)O` [Compound 259], in data set [1], the “Metabolic stability (Qh %)” value worked out at 44%. Moreover, the EC50 in data set [2] worked out at 65 nM. The solubility at 24 h came out at 150 µg/mL (≈ 241 µM) in the data set “physchem” (setting [3]), 86.8 µg/mL (≈ 140 µM) in “physchem” (setting [4]) and 58 µg/mL (≈ 93.5 µM) in the data set “physchem” (setting [5]).
On the same counts, the results for `Cc1c(COc2ccccc2-c2cccc(N3CC[C@@]4(C(=O)O)C[C@H]4C3)n2)ccc2c1CCN(C(C)c1ccccn1)C2` (stereo partly shown) [Compound 306] are 61%, 3 nM, 141 µg/mL (≈ 246 µM), 97.1 µg/mL (≈ 169 µM) and 5.2 µg/mL (≈ 9.05 µM).
